Measured values from a melting point compilation (Tetko et al.; mined from patent text by program, amines drawn as free bases though some values may be those of a salt).

| SMILES | melting point |
| --- | --- |
| OCc1cc(O)cc2cc(-c3ccc(O)cc3)oc12 | 258 to 260 °C |
| C=C(C)c1cccc(C(C)(C)N=C=O)c1 | 60 to 62 °C |
| CN(C1CCN(CCC(F)(F)F)CC1)S(=O)(=O)c1ccc(Nc2nccc(Nc3ccc(F)cc3)n2)cc1 | 195 to 196 °C |
| CC(=O)c1ccc(C2=CCCCC2)cc1 | 76 to 77 °C |
| Cc1ccc([N+](=O)[O-])c(Oc2cc(C(F)(F)F)nn2C)c1 | 88 to 90 °C |
| N#CCc1c[nH]c2cnc(-n3cncn3)cc12 | 218 to 220 °C |
| CC1(C)CCC(C)(C)c2cc3c(cc21)CCc1c(-c2ccc(C(=O)O)cc2)c[nH]c1-3 | 268 to 270 °C |
| CS(=O)(=O)c1ccc(-n2nc(C(F)(F)F)cc2-c2ccc(-c3cscn3)c(F)c2)cc1F | 156 to 158 °C |
| O=Cc1cc([N+](=O)[O-])ccc1Br | 86 to 88 °C |
| CC(C)(CO)NC(=O)c1nn(-c2ccc(Br)cc2)c2c1C1CCC2C1 (stereo not given) | 184 to 186 °C |
| CC(C)CNc1nc2cc(Cl)c(Cl)cc2n1[C@H]1O[C@@H](CO)[C@H](O)[C@@H]1O | 136 °C |
| O=C1CCCc2c1c(-c1ccccc1)nn2-c1ccccc1 | 162 °C |
| CC(=O)NCCCC(=O)N1CC1C#N (stereo not given) | 72 to 75 °C |
| O=[N+]([O-])c1ccc(F)cc1CS(=O)(=O)c1ccccc1 | 169 to 171 °C |
| N#Cc1c(N2CCN(C(=O)c3cccs3)CC2)c2cc(F)cnc2n(Cc2cccc(F)c2)c1=O | 137 °C |
| CC(=O)N(C)c1c(I)c(NC(=O)CCCC(=O)O)c(I)c(C(=O)O)c1I | 189 to 196 °C |
| N#Cc1c(-c2ccc(F)cc2)cc2c3c1ccn3C(=O)CNC2 | 248 to 250 °C |
| COc1cc(N)c(Cl)cc1C(=O)NC1CCN(C(=O)OC(C)(C)C)CC1F (stereo not given) | 198 to 199 °C |
| C#CC(O)(CO)C(O)c1ncnc2c1ncn2Cc1ccc2c(c1)Nc1nccnc1S2 (stereo not given) | 79 to 84 °C |
| CS(=O)(=O)c1ccc(-c2cnn(-c3ccc(F)c(F)c3)c(=O)c2Cc2ccc(F)c(F)c2)cc1 | 177 to 179 °C |
| CCC12CCC3C4=C(CCC3C1C=CC2=O)CC(OC)=CC4 (stereo not given) | 89 to 91 °C |
| Fc1ccc(Oc2ccnc3cccnc23)cc1 | 122 to 124 °C |
| CC(=O)NC[C@H](O)CC(=O)NN | 178 °C |
| NS(=O)(=O)N1CCC(F)(F)CC1 | 111 to 112 °C |
| Cc1cc(C)nc(N=S(C)C)n1 | 117 to 120 °C |
| O=S1NC(CC2=C(Cl)c3ccccc3CC2)=NO1 (stereo not given) | 90.5 to 91.5 °C |
| CC(C)Cn1c(=O)[nH]c(=O)c2nccnc21 | 200 to 201 °C |
| Cc1nnc(-c2cccc(I)c2)s1 | 86 to 89 °C |

| SMILES | melting point |
| --- | --- |
| COc1ccc2oc3cc(C#N)ccc3c(=O)c2c1 | 254 to 255 °C |
| CCOC1CC2(C)C(CCC3C2C(=O)CC2(C)C3CCC23OCCO3)CC1O (stereo not given) | 142 to 145 °C |
| COc1cc2c(cc1OC)C1Cc3cc(OC)c(OC(=O)C=Cc4cc(OC)c(OC)c(OC)c4)cc3CN1CC2 (stereo not given) | 207 to 210 °C |
| CCOC(=O)c1ccc(I)nc1 | 48 to 49 °C |
| O=C(O)CCCN(Cc1cccc(Cl)c1)Cc1cccc(Cl)c1 | 170 to 173 °C |
| C#CCc1c(C)nc2c(OCc3ccccc3CO)cccn12 | 137 to 138 °C |
| c1ccc2c(-c3nc(NC4CCCCC4)c4ccccc4n3)nccc2c1 | 275 to 277 °C |
| O=C(CCCOc1ccc2nc3[nH]c(=O)[nH]c3cc2c1)NC1CCCC1 | > 320 °C |
| O=C1CCN(C(=O)C(F)(F)F)c2ccccc2CN1 | 218 to 219 °C |
| CCCCNC(=O)[C@@H](C[C@H](O)[C@@H](N)C[C@H](Cc1ccc(OC)c(CCOCOC)c1)C(C)C)C(C)C | 56 to 58 °C |
| CC(C)Cc1ccc(C(C)C(=N)NO)cc1 (stereo not given) | 75 to 78 °C |
| NCc1cc(Cl)c(NC(=O)CN2CCN(CCCCC(c3ccc(F)cc3)c3ccc(F)cc3)CC2C(N)=O)c(Cl)c1 (stereo not given) | 161 °C |
| N#Cc1cnn2c1N(C(=O)CCCl)CC=C2c1cccc(C(F)(F)F)c1 | 183 to 185 °C |
| N#CC=CC=CC(=O)C(F)(F)F | 123 to 126 °C |
| OCc1cnoc1-c1ccc(Br)cc1 | 104 to 105 °C |
| CN(C)c1cncc(C#N)c1 | 104 °C |
| CCOC(=O)c1cc(N=c2sc(=O)n3n2CCCC3)c(Cl)cc1Cl | 81 to 83 °C |
| CN1CCN(CC2COCc3nc4c(N)nc5ccccc5c4n32)CC1 (stereo not given) | 187 to 190 °C |
| CS(=O)(=O)c1ccc(-c2ccc(Br)n2-c2ccc(F)cc2)cc1 | 174 to 176 °C |
| O=C1N=CC(OCc2ccccn2)(C(F)(F)F)c2cc(Cl)ccc2N1 (stereo not given) | 233 to 235 °C |
| CCOc1ccc(NC(=O)CC(Cc2cccc3ccccc23)C(=O)O)cc1 (stereo not given) | 131 to 135 °C |
| N#CC(CCN1CCC(C(=O)ON2C(=O)c3ccccc3C2=O)(c2ccccc2)CC1)(c1ccccc1)c1ccccc1 | 156 to 158 °C |
| CN1C(=O)[C@@H](NC(=O)c2ccc(C(F)(F)F)cc2)N=C(c2ccccc2)c2ccccc21 | 125 to 127 °C |
| CC(=NNc1ccc(C2=NNC(=O)CC2C)cc1)c1cc(O)cc(O)c1 (stereo not given) | 162 to 166 °C |
| Cc1nnc(-c2cc(O)c(O)c([N+](=O)[O-])c2)o1 | 245 to 246 °C |
| N#Cc1cc(C(F)(F)F)[nH]c1-c1ccsc1Br | 170 °C |
| Cc1c(-c2cc(N(C)C)ncn2)ssc1=S | 137 °C |

Further lines, results first:

| melting point | SMILES |
| --- | --- |
| 168 to 170 °C | CSC[C@H](C)NC(=O)c1c(Cl)cccc1C(=O)Nc1ccc(Cn2c(C)nnc2C(F)(F)F)cc1C |
| 167 °C | COc1ccc(Br)c(C(=O)N2CCN(S(=O)(=O)c3ccccc3F)CC2)c1 |
| 147 to 149 °C | COC(=O)c1ccccc1NC(=O)OC1CC2C(=O)NC3(C(=O)NS(=O)(=O)C4CC4)CC3C=CCOCCCC(NC(=O)OC(C)(C)C)C(=O)N2C1 (stereo not given) |
| 122 to 125 °C | CC(C)c1ccc(-n2nnc(-c3ccc(OC(=O)C(C)(C)C)cc3)n2)cc1 |
| 236 to 237 °C | CC(C)n1nc(-c2cnc(N)nc2-c2cccc(Cl)c2)ccc1=O |
| > 300 °C | COc1cc2[nH]cc(C(=O)NN3CCNC3=O)c(=O)c2cc1OC |
| 69 to 70 °C | COC(=O)CCCCCNC(=O)c1cccc(OC)c1O |
| 132 °C | CCOC(=O)c1ncc(Cn2c(NC3CCN(C(=O)OCC)CC3)nc3ccccc32)o1 |
| 185 to 187 °C | CCOc1cc(Cl)ccc1-c1nc2n(C3CCCC3)[nH]c(CC)c-2c(=O)n1 |
| 218 to 220 °C | COC(=O)C1=C(O)c2ccc3ccccc3c2S(=O)(=O)N1 |
| 91 to 93 °C | Cc1ccc(S(=O)(=O)OCCC2COc3ccccc3C2)cc1 (stereo not given) |
| 167 to 169 °C | CON(C)C(=O)Nc1c(C(=O)c2cccc(Cl)c2)[nH]c2cc(Cl)ccc12 |
| 129 to 130 °C | Cc1cccc(-n2nc(C(F)(F)F)cc2-c2ccc(S(C)(=O)=O)c(F)c2)c1 |
| 157 to 158 °C | Cc1oc(-c2ccccc2)nc1COc1ccc(OCc2nc(-c3ccccc3)oc2CO)cc1 |
| 130 to 132 °C | CCOC(=O)COc1cc2onc(-c3ccccc3F)c2cc1Br |
| 266 °C | CS(=O)c1cc(CCC(=O)O)cc(-c2nc(=O)c3ccccc3s2)n1 (stereo not given) |
| 259 to 260 °C | CC(C)(C)C(=O)C1=C(O)C(=O)N(c2ccc(-c3ccon3)cc2)C1C1CCCCC1 (stereo not given) |
| 217 to 218 °C | Cc1cc(-c2nc3cccnn3c2-c2ccnc(NC(=O)C3CC3)c2)ccc1F |
| 218 to 219 °C | CCOC(=O)c1cnc2c(OC(F)F)c(F)ccc2c1O |
| 149 to 151 °C | Cc1cc(-c2cc(O)c(SCCc3ccccc3)c(=O)o2)ccc1OCc1cccnc1 |
| 118 to 120 °C | COC(=O)c1cccc(NC(=O)CSC(C)=O)c1 |
| 171 to 173 °C | CC(C)OC(=O)c1cc(-n2c(=O)[nH]c(CF)c(F)c2=O)c(F)cc1Cl |
| 91 to 93 °C | C#CCOc1ccc(CCN(OS(C)(=O)=O)C(=O)Cc2ccc(Cl)cc2)cc1OC |

| melting point | SMILES |
| --- | --- |
| 32 to 34 °C | COc1ccc2cccc(Cl)c2c1 |
| 189 to 190 °C | Cn1c(Nc2c(Cl)cccc2Cl)nc2cc(C(=O)NC3CCC(C)(C)CC3)ccc21 |
| 138 to 139 °C | COc1cc(C=O)ccc1OCc1coc(-c2ccco2)n1 |
| 272 to 274 °C | COc1cc(C(C)C)ccc1C1(NC(N)=O)C(=O)c2ccccc2C1=O |
| 106 to 107 °C | COc1cccc(-c2cc(Cl)c3cc(OC)ccc3n2)c1 |
| 154 °C | CN(C)CCCNC(=O)[C@@H]1CCCN1S(=O)(=O)c1ccc(Cl)c(COc2cccc3c2NC(C)(C)C=C3n2cncn2)c1Cl |
| 174 to 176 °C | CCCC[C@H](NS(=O)(=O)c1ccc(Br)cc1)C(=S)Nc1ccc(CCC(=O)O)cc1 |
| 48 to 50 °C | COc1ccc(C=O)c(Cl)c1OC(C)=O |
| 88 to 91 °C | CCCCC(=O)c1c(-c2ccc3c(Br)c(OCC(=O)OCC)ccc3c2)oc2ccc(Cl)cc12 |
| 155 to 160 °C | Cn1cc(-c2cccc(S(=O)(=O)n3ccc(/C=C/C(=O)NO)c3)c2)cn1 |
| 250 to 252 °C | COc1cc(C2CCN(CC(N)=O)CC2)ccc1Nc1ncc2ccc(-c3cccc(S(=O)(=O)NC(C)(C)C)c3)n2n1 |
| 52 to 53 °C | COc1ccc(S(=O)(=O)OCC(=O)CC(C)C2CCCCC2)cc1 (stereo not given) |
| 236 to 237 °C | COc1nc(NC(=O)NS(=O)(=O)c2cccc3c2OS(=O)(=O)C(C)=C3)c(Cl)c(OC)n1 |
| 173 to 175 °C | Cn1c(=O)c(C(=O)O)nc2cc(F)c([N+](=O)[O-])cc21 |
| 60 to 61 °C | COC(=O)C(C)=Cc1cc(N=C=S)ccc1Cl |
| 203 to 209 °C | COc1cc(Nc2ncnc3cc(OCC4CCCCO4)c(OC)cc23)c(OC)cc1Cl (stereo not given) |
| 142 to 144 °C | CC(C)c1ccc(C(=O)C(C)c2ccccc2)c(C(C)C)c1OS(N)(=O)=O (stereo not given) |
| 72 to 74 °C | COc1cc2c(cc1OC)C(C(=O)Nc1c(C(C)C)cccc1C(C)C)SCC2 (stereo not given) |
| 107 to 109 °C | COc1cc(OC)c2c(=O)[nH]c(-c3cc(C)cc(OCCO)c3)nc2c1 |
| 172 to 174 °C | CCOC(=O)Cn1nc(-c2ccccc2O)nc1-c1ccccc1O |
| 122 to 123 °C | COc1cc(CCCC2OC(=O)NC2=O)ccc1OCc1coc(CCc2ccccc2)n1 (stereo not given) |
| 167 to 168 °C | COc1ccc(Cn2cccc2C(=O)CC(=O)C(=O)O)cc1 |
